This note sets out measurements from patent publication US8741963B2, “S1P receptor modulators for treating multiple sclerosis” (Novartis AG, priority 2006, dated 2014).

This experiment concerns Relapsing Experimental Autoimmune Encephalomyelitis (EAE). The experiment is described as follows: Relapsing Experimental Autoimmune Encephalomyelitis (EAE), vascular casts quantitated by micro computer tomography. It counts as in vivo, female Lewis rats. Particulars: rat relapsing EAE. From the text: In Vivo: Relapsing Experimental Autoimmune Encephalomyelitis (EAE)
Disease is induced in female Lewis rats by immunization with guinea pig spinal cord tissue emulsified in complete Freund's adjuvant. […] On day 26 rats are thoracectomized after having been deeply anesthetized with Isoflurane (3%, 20 L/min) and perfused through the left ventricle of the heart. The left ventricle is punctured with a 19 gauge needle from a winged infusion set (SV-19BLK; Termudo, Elkton, Md.), which is connected to an airtight pressurized syringe containing the rinsing solution (NaCl 0.9% with 250,000 U/I heparin at 35° C.). The right atrium is punctured to provide outflow, and the perfusate is infused under a precise controlled pressure of 120 mm Hg. The perfusion is continued for 5 min (at a constant rate of 20 ml/min) followed by a pre-fixation solution (2% performaldehyde in PBS at 35° C.). Finally, up to 30 ml of polyurethane resin (PUII4; Vasqtec, Zürich, Switzerland) is infused at the same rate. After 48 h, the resin-filled brain and spinal cord are excised from the animal and the soft tissue removed by maceration in 7.5% KOH during 24 hr at 50° C. The casts are then thoroughly cleaned with and stored in distilled water before drying by lyophilization. These vascular casts are quantitated using micro computer tomography.

The mark [1] stands for this setting: hydrochloride salt form, daily 0.3 mg/kg p.o.

With `CCCCCCCCc1ccc(CCC(N)(CO)CO)cc1.Cl` [Compound A, 2-amino-2-[2-(4-octylphenyl)ethyl]propane-1,3-diol], the disease-associated neo-angiogenesis result (dose of from 0.1 to 20 mg/kg p.o.) is “significantly blocks”. Further, under setting [1], the disease-associated angiogenesis entry is given as “fully blocks” and the relapse phases result is “completely inhibits”. Also, for the setting “hydrochloride salt form, p.o. 0.3 mg/kg every 2nd or 3rd day or once a week”, the “effect on disease-associated angiogenesis and relapse phases, intermittent administration” value was “The same effect is obtained”.
